# “Also recorded” adds a separate entry of the source. Residues, ends and D or L forms follow the SMILES beside them. *: point of attachment. NBD = O=[N+]([O-])c1ccc(*)c2nonc12; Ahx = NCCCCCC(=O)O
# Key:
# [1] = test system: P. aeruginosa; assay: Live confocal imaging of bacteria, signal to noise of FAM vs NBD label; assay type: cell-based; settings: confocal microscopy, 10 μM
# Text: UBI29–41 was firstly conjugated to carboxyfluorescein (UBI-1) and used to image bacteria with analysis via confocal microscopy. This yielded insufficient signal to noise to distinguish bacteria from background fluorescence (Fig. 1). We therefore took advantage of the environmental reporting properties of the fluorophore 7-nitrobenz-2-oxa-1,3-diazole (NBD)[12] and hypothesized there would be fluorescence amplification of NBD in the apolar hydrophobic bacterial membrane.
# Fig. 1 NBD–UBI enables live confocal imaging of bacteria. […]
# (§1) Confocal Analysis and Fluorescence Quantification: 8-Well Lab-Tek II Confocal Chambers (VWR, PA, USA) were coated in fibronectin (for neutrophil experiments) or poly-d-lysine (for bacteria) at 37 °C for 20 minutes, then washed in PBS prior to bacterial innoculation. […] Exposure to 488 nm light was limited to 5% of the maximum laser power in order to minimize toxicity. ‘Green’ fluorescence (for FAM and NBD) was excited with a dedicated 488 nm line and emitted light detected with meta detector (500-530 nM).
# (§2) Syto nuclear and dyes were excited with a dedicated 543 nm line, and emitted light detected with meta detector (570-610 nM). Fields of view were chosen based on the counterstain and at least three fields of view were recorded for each condition. […]
# mean fluorescence intensity on the probe channel within this ROI was quantified. […]
# [2] = Chemical stability on storage in phosphate buffered saline at 37 °C (HPLC); assay type: physicochemical; settings: 1 mg mL–1 in PBS, day 0 vs day 3, HPLC, detection at 380 nm
# Method: This modification is particularly of relevance due to the expected in vivo inflammatory oxidative environment within an infected pneumonic lung due to infiltrating host inflammatory cells such as neutrophils,[13] and therefore all subsequent modifications incorporated Nle in place of Met.
# HPLC chromatograms (gradient acetonitrile + 0.1% formic acid/water + 0.1% formic acid from 5/95 to 95/5 over 10 min, then isocratic for 4 min; detection at 380 nm). UBI-2 (1 mg mL^–1 in PBS, upper panels) and UBI-3 (1 mg mL^–1 in PBS, lower panels) at (A) day 0 and (B) day 3 after incubation at 37 °C.
# [3] = test system: methicillin-sensitive Staphylococcus aureus (MSSA), Pseudomonas aeruginosa and Klebsiella pneumoniae; assay: Confocal bacterial labelling, UBI-2 vs UBI-3 on a panel of bacteria; assay type: cell-based; settings: fluorescence normalised to UBI-2, mean ± SEM, n ≥ 3
# Method: Fig. 3 UBI-3 retains specificity and sensitivity for bacterial labelling. […] Panels show bacteria labelled with either UBI-2 or UBI-3 with quantification of fluorescence (values normalised to UBI-2) (Bars represent mean, error bars represent standard error of mean, n ≥ 3, ns = not significant, scale bar = 10 μm). (B) Quantification from confocal images of UBI-3 (10 μM) imaging a panel of bacteria (statistical analyses shown compared to unlabelled bacteria, n ≥ 3 for each bacteria, *** = p < 0.001). […] [MRSA: methicillin-resistant Staphylococcus aureus, MSSA: methicillin-sensitive Staphylococcus aureus]. […]
# as §1, §2
# [4] = test system: methicillin-sensitive Staphylococcus aureus; assay: Confocal labelling of MSSA with quantified fluorescence; assay type: cell-based; settings: for concentration dependence of bacterial labelling: 0.5 μM to 50 μM, methicillin sensitive S. aureus; for bacterial labelling (fluorescence compared with UBI-3): MSSA, 10 μM, fluorescence normalized to UBI-3, mean ± SEM, n ≥ 3
# Method: Fig. 6 Confocal Images of compounds UBI-3 to 9 with quantified fluorescence. Panels show methicillin-sensitive Staphylococcus aureus incubated with UBI-3 to 9 (all 10 μM) with quantification of bacterial fluorescence normalized to UBI-3 (bars represent mean (±SEM), n ≥ 3, ns = not significant, *** = p < 0.001, * = p < 0.05, scale bar = 10 μm).
# Fig. 8 Confocal images and quantification of cyclic variants when compared to UBI-3. Panels show methicillin-sensitive Staphylococcus aureus incubated with cyclic UBI compounds (all 10 μM) with quantification of bacterial fluorescence normalized to UBI-3 (bars represent mean (±SEM), n ≥ 3, ns = not significant, ** = p < 0.01, scale bar = 10 μm).
# Bacterial Culture and Labelling: Bacteria used were K. pneumoniae (ATCC BAA1706) ATCC, E. coli (ATCC 25922) ATCC, A. baumannii (J3433) Clinical Isolate, P. aeruginosa (J3284) Clinical Isolate, Methicillin Resistant S. aureus (MRSA) (ATCC25923) ATCC and Methicillin Sensitive S. aureus (MSSA) (ATCC 252) ATCC. All bacteria were grown on Lysogeny broth (LB) agar and from a single bacterial colony placed into 10ml of LB and incubated at 37°C for 16 hours in an orbital shaker.
# Cultures were centrifuged at 4000rpm for 5 minutes and the pellet resuspended in 1ml phosphate buffered saline (PBS, Life Technologies). Following three further washes in PBS the cultures were reconstituted to 1 OD595 nm. Bacteria were counterstained with 5µM Syto 82 orange fluorescent nucleic acid stain (Invitrogen, CA, USA) in a shaking heat block at 37 °C for 20 minutes. For FCFM bacteria were stained with 1µM Calcein AM (Sigma, MO, USA) for 30 minutes at 37 °C. Counterstained bacteria were washed in PBS to remove excess dye. […]
# (§3) Confocal Analysis and Fluorescence Quantification: 8-Well Lab-Tek II Confocal Chambers (VWR, PA, USA) were coated in fibronectin (for neutrophil experiments) or poly-d-lysine (for bacteria) at 37 °C for 20 minutes, then washed in PBS prior to bacterial innoculation. For co-culture assays, neutrophils were seeded on fibronectin coated wells at 1 x 10^5 neutrophils per well for 20 minutes and non-adherent neutrophils aspirated. Bacteria were added to each chamber to a final concentration of 0.5 OD595 nm with the desired final concentration of Smartprobe. A laser-scanning confocal imaging system (LSM510; Carl Zeiss, Jena, Germany), incorporating an upright Axioskop FS2 microscope (63× objective) was used for image acquisition and processing. Exposure to 488 nm light was limited to 5% of the maximum laser power in order to minimize toxicity. ‘Green’ fluorescence (for FAM and NBD) was excited with a dedicated 488 nm line and emitted light detected with meta detector (500-530 nM).
# (§4) Syto nuclear and dyes were excited with a dedicated 543 nm line, and emitted light detected with meta detector (570-610 nM). Fields of view were chosen based on the counterstain and at least three fields of view were recorded for each condition. For affinity assays, following initial imaging, the fluid was aspirated and two gentle washes with PBS were performed. The chamber was re-imaged on confocal.
# (§5) Analysis was with ImageJ (version 1.46r, National Institutes of Health, USA); the Syto channel was automatically thresholded (MaxEntropy, with a set threshold 0-47) and an ROI generated from this. The […]
# (§6) mean fluorescence intensity on the probe channel within this ROI was quantified. Data presented represents the mean of three experiments, from each of which three separate fields of view were assessed. All experiments were performed at least three times unless otherwise stated and results expressed as mean ± SEM. Data was analysed by unpaired t-test and significance was determined as p<0.05 (GraphPad Prism version 5.01 for Windows, GraphPad Software, San Diego California USA).
# Ex vivo Human Lung and FCFM Procedure: Human lung samples were obtained from patients undergoing surgical resection for lung carcinoma. All images were obtained on sections of normal lung […]
# [5] = test system: Methicillin sensitive S. aureus, K. pneumoniae and P. aeruginosa; assay: Bacterial affinity: fluorescence retention following a PBS wash (confocal); assay type: cell-based; settings: for bacterial affinity (Table 1, effect on efficacy): Table 1 summary
# Method: Three compounds (UBI-3, UBI-5 and UBI-10) were assessed for further evaluation. […] In vitro affinity of bacterial binding was assessed by incorporating a wash step in the live confocal imaging protocol with a panel of bacteria with the ‘wash-off’ representing a surrogate indicator of Smartprobe-bacterial labelling affinity. […] UBI-10, therefore, was assessed further in a clinically relevant biological system.
# Figure S4. Quantified fluorescence of confocal microscopy images of the compounds UBI-3, UBI-5 and UBI-10 on three bacteria and fluorescence retention following a PBS wash. Quantification of fluorescence intensity of (A) Methicillin sensitive S. aureus, (B) K. pneumoniae and (C) and P. […]
# intensity following a PBS wash. […]
# as §3, §4, §5, §6
# Ex vivo Human Lung and FCFM Procedure: Human lung samples were obtained from patients undergoing surgical resection for lung carcinoma. All images were obtained on sections of normal lung away from the cancerous growth. Informed consent was obtained and the study was approved by the Regional Ethics Committee. Samples were taken fresh from the operating theatre, dissected into 4mm sections and placed in wells of 96 well plate. Bacteria were pre-labelled with Smartprobe or Calcein AM and co-cultured in the well with a maximum volume of 100µl. […]
Compound,signal to noise for bacterial labelling [1],chemical stability in PBS at 37 °C [2],"bacterial labelling, Met vs Nle variant [3]",concentration dependence of bacterial labelling [4],bacterial labelling (fluorescence compared with UBI-3) [4],"fluorescence following labelling and a PBS wash ([5]; 10 µM, two gentle PBS washes, three bacterial species, n=3)","bacterial affinity (Table 1, effect on efficacy) [5]"
CSCC[C@H](NC(=O)[C@H](CCCNC(=N)N)NC(=O)[C@H](CCCNC(=N)N)NC(=O)[C@H](CCCCN)NC(=O)[C@H](C)NC(=O)[C@H](CCCNC(=N)N)NC(=O)CNC(=O)[C@@H](NC(=O)CCCCCNc1ccc([N+](=O)[O-])c2nonc12)[C@@H](C)O)C(=O)N[C@@H](CCC(N)=O)C(=O)N[C@@H](Cc1ccc(O)cc1)C(=O)N[C@@H](CC(N)=O)C(=O)N[C@@H](CCCNC(=N)N)C(=O)N[C@@H](CCCNC(=N)N)C(N)=O [UBI-2] ({NBD-Ahx}-TGRAKRRMQYNRR-NH2),good signal to noise; also recorded: higher signal to noise for bacterial labelling over UBI-1,underwent chemical degradation; also recorded: Unstable at 37 °C in PBS,same fluorescence intensity,,,,
"NBD-Ahx-Thr-Gly-Arg-Ala-Lys-Arg-MeArg-Nle-Gln-Tyr-Asn-Arg-Arg-D-Phe-D-Val-NH2 [UBI-5, NBD-UBI with D-amino acids (D-Val and D-Phe) incorporated at the C-terminus]",,,,concentration dependent manner,same intensity as UBI-3,significantly lower fluorescence,poor bacterial affinity
"NBD-Ahx-Thr-Gly-Arg-Ala-Lys-MeArg-MeArg-Nle-Gln-Tyr-Asn-MeArg-MeArg-NH2 [UBI-4, NBD-UBI with N-Methylarginine (MeArg) insertion based on MALDI-TOF analysis of cleavage peptides]",,,,concentration dependent increase in bacterial fluorescence,same intensity as UBI-3,,poor bacterial affinity
